In PubChem BioAssay (NCI) one finds TGI and GI50 data, which are given here for 18 molecules.

For orientation: TGI means the concentration giving total growth inhibition. A lower TGI goes with more potent growth arrest. By GI50 is commonly meant the concentration that inhibits growth by half.

Some test systems named below: BT-549 breast; EKVX NSCLC; HCT-15 colon; HOP-92 NSCLC; HT29 colon; MALME-3M melanoma; NCI-H23 lung; RXF 393 renal; SK-MEL-2 melanoma; SK-MEL-5 melanoma; U251 CNS; UACC-257 melanoma.
Common to all, as to assay: DTP human tumour cell line panel, 48 h

Several values for one entry are separate records, joined by “and”; a condition that tells them apart may be missing. Equal entries are not always repeated.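 Method: 48-hour compound exposure of cells in 96-well plates, five concentrations, linear interpolation of endpoints. GI50 marks 50% less growth. TGI is the concentration that stops growth completely.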 Where only a bound is given, the exact number is not on record here.

As to `O=C(CCc1ccc(O)c(O)c1)NCCc1cc(O)c(O)c(O)c1`, the TGI in the assay with BT-549 breast was 31.1 µM; in the assay on EKVX NSCLC, 53 µM; with HCT-15 colon, 32.1 µM; in the assay with HOP-92 NSCLC, more than 100 µM; in the assay with HT29 colon it was 35.4 µM; in the assay with MALME-3M melanoma it was more than 100 µM. Moreover, the TGI in the assay with NCI-H23 lung was 31.3 µM; in the assay with RXF 393 renal it was more than 100 µM; with SK-MEL-2 melanoma it was 50.6 µM; in the assay on SK-MEL-5 melanoma it was 66.2 µM; in the assay with U251 CNS it was 31.7 µM; with UACC-257 melanoma, more than 100 µM.
As to `CCCCCCCCCCCCCCCC(=O)Nc1ccn(C2CCC(COP(=O)(O)OCC3OC(n4cc(F)c(=O)[nH]c4=O)CC3OC(C)=O)O2)c(=O)n1` (configuration not stated), the TGI with BT-549 breast is 58.4 µM; with EKVX NSCLC it was more than 100 µM; with HCT-15 colon it was more than 100 µM; with HOP-92 NSCLC, 66.3 µM; in the assay with HT29 colon, 32.4 µM; with MALME-3M melanoma it was 53.3 µM. For the same molecule, the TGI with NCI-H23 lung is 47.9 µM; in the assay with RXF 393 renal, more than 100 µM; in the assay with SK-MEL-2 melanoma, 47.6 µM; with SK-MEL-5 melanoma, 26.9 µM; in the assay with U251 CNS, 36.3 µM; with UACC-257 melanoma it was 53.6 µM.
For `O=C(NCCc1ccccc1)c1cc(/C=C/c2cc(O)ccc2O)ccc1O`, the TGI with BT-549 breast was 3.7 µM; with EKVX NSCLC, 8.24 µM; with HCT-15 colon it was 7.42 µM; with HOP-92 NSCLC it was 4.35 µM; with HT29 colon, more than 50 µM; in the assay with MALME-3M melanoma, 5.07 µM. Also, the TGI was determined as 17.7 µM with NCI-H23 lung; 2.93 µM with RXF 393 renal; 11.8 µM with SK-MEL-2 melanoma; 7.32 µM in the assay on SK-MEL-5 melanoma; 5.28 µM in the assay on U251 CNS; 8.57 µM in the assay on UACC-257 melanoma.
For the molecule `O=C1/C(=C/c2ccc(Cl)cc2)N=C(c2ccccc2)N1/N=C/c1ccccc1O`, the TGI with BT-549 breast is 39.6 µM; in the assay with EKVX NSCLC it was 21.3 µM; in the assay on HCT-15 colon it was more than 100 µM; with HOP-92 NSCLC, 32.9 µM; in the assay on HT29 colon it was more than 100 µM; in the assay with MALME-3M melanoma, 18.7 µM. Further, the TGI with NCI-H23 lung was more than 100 µM; in the assay with RXF 393 renal, 29.5 µM; in the assay on SK-MEL-2 melanoma, 46.3 µM; in the assay with SK-MEL-5 melanoma it was more than 100 µM; in the assay with U251 CNS it was 18.6 µM; in the assay with UACC-257 melanoma it was more than 100 µM.
`O=C1CCN2C(=N1)Sc1ccccc12`: the TGI in the assay with BT-549 breast, in the assay on EKVX NSCLC, with HCT-15 colon, in the assay on HOP-92 NSCLC, in the assay with HT29 colon and in the assay on MALME-3M melanoma was more than 100 µM throughout. In addition, the TGI in the assay on NCI-H23 lung, with RXF 393 renal, in the assay on SK-MEL-2 melanoma, in the assay on SK-MEL-5 melanoma, in the assay on U251 CNS and in the assay on UACC-257 melanoma was more than 100 µM in each case.
As for `OCC1OC(n2cnc3c(SCc4ccccc4)ncnc32)C(O)C1O` (configuration not stated), the TGI in the assay with BT-549 breast is more than 100 µM; with EKVX NSCLC it was more than 100 µM; in the assay with HCT-15 colon, more than 100 µM; in the assay on HOP-92 NSCLC, more than 79.9 µM; with HT29 colon, more than 100 µM; in the assay with MALME-3M melanoma, more than 100 µM. Also, the TGI in the assay on NCI-H23 lung, in the assay with RXF 393 renal, in the assay with SK-MEL-2 melanoma, in the assay on SK-MEL-5 melanoma, in the assay on U251 CNS and in the assay with UACC-257 melanoma was more than 100 µM each time.
Turning to `CC(=O)O[C@H]1CC[C@@]2(C)C(=CC[C@@H]3[C@@H]2CC[C@](C)(c2nnc(C)o2)[C@H]3CC#N)C1`, the total growth inhibition concentration (TGI) in the assay on BT-549 breast, with EKVX NSCLC, in the assay on HCT-15 colon, with HOP-92 NSCLC, in the assay with HT29 colon and in the assay on MALME-3M melanoma was more than 100 µM each time. Further, the TGI in the assay with NCI-H23 lung, with RXF 393 renal, in the assay on SK-MEL-2 melanoma, in the assay with SK-MEL-5 melanoma, in the assay with U251 CNS and in the assay on UACC-257 melanoma was more than 100 µM throughout.
Take `Cc1cccc(N=C/C=C(\Cl)c2ccc3ccccc3c2)c1`: the TGI in the assay on BT-549 breast is 44.5 µM; in the assay with EKVX NSCLC, more than 100 µM; with HCT-15 colon, 28.2 µM; in the assay on HOP-92 NSCLC it was more than 62.3 µM; in the assay with HT29 colon it was more than 62.7 µM; with MALME-3M melanoma, 36.4 µM. The TGI in the assay on NCI-H23 lung is 34.5 µM; in the assay on RXF 393 renal, more than 56.9 µM; with SK-MEL-2 melanoma it was 68.9 µM; in the assay with SK-MEL-5 melanoma, 37.1 µM; in the assay with U251 CNS, 31 µM; in the assay on UACC-257 melanoma, 39.1 µM.
`NC(Cc1ccccc1)c1nn[nH]n1` (configuration not stated): the TGI in the assay with BT-549 breast, in the assay on EKVX NSCLC, in the assay with HCT-15 colon, in the assay with HOP-92 NSCLC, in the assay on HT29 colon and in the assay with MALME-3M melanoma was more than 100 µM in each case. Besides, the TGI in the assay with NCI-H23 lung, in the assay with RXF 393 renal, in the assay with SK-MEL-2 melanoma, in the assay with SK-MEL-5 melanoma, in the assay on U251 CNS and with UACC-257 melanoma was more than 100 µM in each case.
Turning to `CCOC(=O)C1(C#N)C(C#N)(C#N)C1(C#N)C#N`, the TGI in the assay with BT-549 breast, in the assay with EKVX NSCLC, in the assay with HCT-15 colon, in the assay with HOP-92 NSCLC, in the assay with HT29 colon and in the assay on MALME-3M melanoma was more than 100 µM throughout. The TGI in the assay on NCI-H23 lung, in the assay on RXF 393 renal, with SK-MEL-2 melanoma, in the assay with SK-MEL-5 melanoma, in the assay with U251 CNS and with UACC-257 melanoma was more than 100 µM in each case.
`CCCn1c(=O)c2nn3c(=O)n(CCC)c(=O)c3nn2c1=O`: the TGI with BT-549 breast, in the assay with EKVX NSCLC, in the assay on HCT-15 colon, in the assay with HOP-92 NSCLC, in the assay with HT29 colon and in the assay with MALME-3M melanoma was more than 100 µM each time. Besides, the TGI in the assay with NCI-H23 lung, with RXF 393 renal, in the assay with SK-MEL-2 melanoma, with SK-MEL-5 melanoma, with U251 CNS and in the assay on UACC-257 melanoma was more than 100 µM throughout.
For `Cc1cccc2c1c(=O)c1c(O)cc3c(c1n2C)C=CC(C)(C)O3`, the TGI in the assay on BT-549 breast, in the assay on EKVX NSCLC, in the assay on HCT-15 colon, with HOP-92 NSCLC, with HT29 colon and in the assay with MALME-3M melanoma was more than 100 µM throughout. In addition, the TGI in the assay on NCI-H23 lung, in the assay on RXF 393 renal, in the assay on SK-MEL-2 melanoma, in the assay with SK-MEL-5 melanoma, in the assay with U251 CNS and with UACC-257 melanoma was more than 100 µM in each case.
For the molecule `Nc1nc(Br)nc2ncn(C3CC(O)C(CO)O3)c12` (configuration not stated), the TGI with BT-549 breast, in the assay on EKVX NSCLC, in the assay on HCT-15 colon, with HOP-92 NSCLC, in the assay on HT29 colon and in the assay with MALME-3M melanoma was more than 100 µM throughout. Further, the TGI in the assay on NCI-H23 lung was more than 53 µM; with RXF 393 renal it was more than 100 µM; in the assay on SK-MEL-2 melanoma, more than 100 µM; with SK-MEL-5 melanoma it was more than 100 µM; in the assay with U251 CNS, more than 100 µM; in the assay on UACC-257 melanoma, more than 100 µM.
On to `Cc1cc(C)c(S(=O)(=O)N(CCCN)OCCON(CCCN)S(=O)(=O)c2c(C)cc(C)cc2C)c(C)c1`, for which the TGI in the assay with BT-549 breast is 66.2 µM; in the assay with EKVX NSCLC it was 20.6 µM; in the assay with HCT-15 colon, 70.5 µM; with HOP-92 NSCLC it was more than 21.6 µM; in the assay with HT29 colon, 40.4 µM; in the assay with MALME-3M melanoma, 3.8 µM. Also, the TGI was 7.11 µM with NCI-H23 lung; more than 100 µM with RXF 393 renal; 3.24 µM in the assay with SK-MEL-2 melanoma; more than 100 µM in the assay on SK-MEL-5 melanoma; more than 100 µM with U251 CNS; 36.5 µM with UACC-257 melanoma.
Take `Cc1c2ccccc2c(C2C3C(=O)N(c4cccc5ccccc45)C(=O)C3ON2Cc2ccc(CC(N)=O)cc2)c2ccccc12` (configuration not stated): the TGI in the assay on BT-549 breast is more than 50 µM; in the assay on EKVX NSCLC it was 48.9 µM; in the assay with HCT-15 colon, more than 50 µM; in the assay on HOP-92 NSCLC, more than 50 µM; in the assay on HT29 colon, 27 µM; with MALME-3M melanoma, more than 50 µM. Further, the TGI with NCI-H23 lung is more than 50 µM; in the assay on RXF 393 renal it was 40 µM; in the assay with SK-MEL-2 melanoma, 31.3 µM; in the assay with SK-MEL-5 melanoma it was more than 50 µM; in the assay with U251 CNS, more than 50 µM; in the assay with UACC-257 melanoma it was 37 µM.
Regarding `O=C(c1ccccc1)C(Nc1ccc2ccccc2c1)c1ccccc1` (configuration not stated), the TGI was more than 100 µM in the assay with BT-549 breast; more than 100 µM with EKVX NSCLC; more than 100 µM with HCT-15 colon; more than 100 µM with HOP-92 NSCLC; more than 100 µM with HT29 colon; more than 94.8 µM in the assay on MALME-3M melanoma. For the same molecule, the TGI with NCI-H23 lung was more than 100 µM; with RXF 393 renal it was more than 100 µM; in the assay on SK-MEL-2 melanoma, 41.8 µM; in the assay with SK-MEL-5 melanoma it was 36 µM; in the assay with U251 CNS, more than 100 µM; in the assay with UACC-257 melanoma, 48.2 µM.
On to `O=C(Oc1c(Br)cc(Br)cc1C(=O)Oc1ccccc1)C(=O)Oc1c(Br)cc(Br)cc1C(=O)Oc1ccccc1`, for which the TGI with BT-549 breast is 52 µM; in the assay with EKVX NSCLC it was more than 100 µM; with HCT-15 colon it was 75.3 µM; in the assay with HOP-92 NSCLC, 38.4 µM; in the assay on HT29 colon, more than 100 µM; in the assay on MALME-3M melanoma, 59.2 µM. Also, the TGI was 46.6 µM with NCI-H23 lung; 27.2 µM with RXF 393 renal; 93.3 µM with SK-MEL-2 melanoma; 31 µM in the assay with SK-MEL-5 melanoma; 40.6 µM in the assay with U251 CNS; more than 100 µM with UACC-257 melanoma.
Turning to `Nc1nc(N)c2ncn(-c3ccccc3)c2n1`, the TGI in the assay on BT-549 breast, with EKVX NSCLC, with HCT-15 colon, with HOP-92 NSCLC, with HT29 colon and with MALME-3M melanoma was more than 100 µM throughout. The TGI with NCI-H23 lung, in the assay on RXF 393 renal, in the assay on SK-MEL-2 melanoma, in the assay with SK-MEL-5 melanoma, in the assay on U251 CNS and in the assay on UACC-257 melanoma was more than 100 µM in each case. Moreover, the GI50 in the assay on EKVX NSCLC was 43.3 µM and 89.6 µM.
